Data as given in BindingDB's records for patent US20250059185 (Hoffmann-La Roche, 2025).

Molecular target: T1, Monoglyceride lipase (Homo sapiens, UniProt Q99685)
T1 sequence (Q99685 whole entry): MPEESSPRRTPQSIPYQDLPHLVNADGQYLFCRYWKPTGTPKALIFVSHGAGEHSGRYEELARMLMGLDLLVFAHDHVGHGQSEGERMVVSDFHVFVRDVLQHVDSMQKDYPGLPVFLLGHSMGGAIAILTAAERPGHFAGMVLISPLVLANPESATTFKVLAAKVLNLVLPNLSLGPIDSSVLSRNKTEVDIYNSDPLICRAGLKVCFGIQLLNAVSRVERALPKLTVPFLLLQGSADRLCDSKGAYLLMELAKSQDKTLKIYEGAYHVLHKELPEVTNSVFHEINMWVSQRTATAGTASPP
Experiment: MAGL Inhibitory Activity Assay
Method: MAGL inhibitory activity by determining the enzymatic activity by following the hydrolysis of the natural substrate 2-arachidonoylglycerol (2-AG) resulting in arachidonic acid, which can be followed by mass spectrometry. This assay is hereinafter abbreviated “2-AG assay”. The 2-AG assay was carried out in 384 well polypropylene assay plates. Compound dilutions were made in 100% DMSO in a polypropylene plate in 3-fold dilution steps to give a final concentration range in the assay from 12.5 μM to 0.8 pM. Compound dilutions were added to MAGL protein in assay buffer (50 mM TRIS, 1 mM EDTA, 0.01% (v/v) Tween-20, 2.5% (v/v) DMSO). After shaking, the plate was incubated for 15 min at RT. To start the reaction, 2-arachidonoylglycerol in assay buffer was added. The final concentrations in the assay was 50 pM for MAGL protein and […] 2-arachidonoylglyerol. After shaking and 30 min incubation at RT, the reaction was quenched by the addition of two assay volumes of acetonitrile containing 4 μM of d8-arachidonic acid. The amount of arachidonic acid formed was traced by an online SPE system (Agilent Rapidfire) coupled to a triple quadrupole mass spectrometer.

IC50: 152 nM
Structure (SMILES): COc1cccc(C(=O)N2CCc3c(nn(C)c3-c3cc(Cl)cc(CC(N)=O)c3)[C@H]2C)c1Cl [US20250059185, Example 15]
